Results on eleven compounds are retold here after US11034672B1, “Tyrosine kinase inhibitor compositions, methods of making and methods of use” (Black Diamond Therapeutics, Inc., priority 2018, dated 2021).

The subject of assay [1] is covalently-activated EGFR variants. Put plainly: Covalent dimer formation, Western blot under non-reducing conditions. The class given is cell-based.
Assay [2] deals with GBM. The note with it: in combination with radiation and temozolomide; cited from earlier work.
Assay [3] relates to cells having the EGFR-Vii mutation. Put plainly: Proliferation of cells having the EGFR-Vii mutation (FIG. 18). The class given is cell-based. As to the method:
(§1) EC50 values were determined with the same application.

Assay [4] has as its system cells expressing ErbB ectodomain variants.
The target in assay [5] is T1, HER2 YVMA (Homo sapiens, UniProt P04626, INS775YVMA).
T1 construct: expressed in transfected cells; host or cells: BaF3 (murine pro-B)
T1 sequence (P04626 with tags, fused parts or gaps INS775YVMA): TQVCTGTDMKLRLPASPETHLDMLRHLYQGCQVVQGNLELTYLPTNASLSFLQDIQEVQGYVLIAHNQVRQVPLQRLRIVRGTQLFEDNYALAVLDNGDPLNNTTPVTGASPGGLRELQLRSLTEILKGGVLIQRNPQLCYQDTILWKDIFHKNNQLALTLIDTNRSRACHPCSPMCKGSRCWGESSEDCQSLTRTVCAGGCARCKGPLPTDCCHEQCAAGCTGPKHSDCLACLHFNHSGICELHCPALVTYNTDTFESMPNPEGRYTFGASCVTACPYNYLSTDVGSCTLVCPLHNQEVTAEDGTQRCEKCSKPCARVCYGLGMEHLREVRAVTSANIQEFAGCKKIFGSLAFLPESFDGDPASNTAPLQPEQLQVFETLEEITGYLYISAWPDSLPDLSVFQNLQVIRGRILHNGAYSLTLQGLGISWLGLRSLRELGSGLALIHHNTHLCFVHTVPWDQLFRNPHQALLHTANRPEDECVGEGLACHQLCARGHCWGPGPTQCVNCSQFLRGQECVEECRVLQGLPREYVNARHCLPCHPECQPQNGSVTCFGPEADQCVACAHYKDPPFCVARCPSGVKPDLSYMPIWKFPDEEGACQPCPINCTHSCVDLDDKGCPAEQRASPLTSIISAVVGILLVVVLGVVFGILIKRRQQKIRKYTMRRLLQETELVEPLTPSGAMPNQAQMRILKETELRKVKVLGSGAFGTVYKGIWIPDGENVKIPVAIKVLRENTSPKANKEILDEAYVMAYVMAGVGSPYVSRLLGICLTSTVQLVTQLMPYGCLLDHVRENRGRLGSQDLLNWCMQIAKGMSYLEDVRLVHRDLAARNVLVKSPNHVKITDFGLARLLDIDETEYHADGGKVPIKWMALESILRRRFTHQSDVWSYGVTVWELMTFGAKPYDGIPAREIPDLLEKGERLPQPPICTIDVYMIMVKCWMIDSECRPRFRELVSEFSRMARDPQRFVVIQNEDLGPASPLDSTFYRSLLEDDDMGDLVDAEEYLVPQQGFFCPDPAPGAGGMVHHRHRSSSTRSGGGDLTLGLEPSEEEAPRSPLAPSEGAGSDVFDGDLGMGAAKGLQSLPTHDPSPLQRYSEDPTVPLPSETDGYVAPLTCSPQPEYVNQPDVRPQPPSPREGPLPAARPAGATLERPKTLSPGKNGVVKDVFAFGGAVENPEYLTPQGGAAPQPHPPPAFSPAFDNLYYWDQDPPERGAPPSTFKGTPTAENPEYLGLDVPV
Description: Activity for inhibiting HER2 (Table B), HER2 YVMA. The assay is classed as cell-based. The note with it: read-out: HER2 YVMA, potency code (IC50). The procedure:
as §1

In assay [6] the test system is HER2 S310F. Description: Tumor pHER2/pERK AlphaLisa in mice bearing HER2 S310F BaF3 tumors (Examples 15-18). The class given is in vivo. The note with it: two day acute oral dosing, 15 mg/kg; at peak plasma levels. The procedure:
(§2) Following the second dose, tumors were collected at 2 hours, 5 hours, 12 hours and 24 hours, and analyzed for both pHER2 activity and pERK activity via AlphaLisa. Plasma was also collected at these time points and analayzed for the presence of Compound No. 21 to determine pharmacokinetic profile. The tumor tissue was cut and homogenized using the Precellys Soft Tissue Homogenizing kit (KT03961-1-00.3.2) containing T-PER tissue protein extraction reagent (Thermo Scientific #78510), supplemented with Protease Inhibitor (Sigma P8340), and Phosphatase Inhibitors II and III (Sigma P5726 and P0044). Tissue samples were homogenized in the Precellys machine by spinning two times for one minute each. Sample tubes were centrifuged for 5 min at 15,000 rpm at 4° C. The supernatant was transferred to a fresh microtube and spun again for 5 minutes at 15,000 rpm at 4° C. Supernatant was then transferred to a fresh microtube and placed on ice. The protein concentration of the supernatant was measured using the BCA reagent Kit (Thermo Scientific #23225). Tumor tissue-derived lysates were analyzed for either HER2 activity or EGFR activity by detection of pHER2 (Tyr1221/1222) or pERK (Thr202/Tyr204) phosphosites, respectively, via AlphaLisa. Briefly, tumor Lysates were diluted to 0.5 ug/ul in 1× diluted SureFire Ultra Kit Lysis Buffer (5× supplied stock) supplemented with Protease Inhibitor (Sigma P8340) and Phosphatase Inhibitor II and III (Sigma P5726 and P0044). 10 ul of total tumor lysate was added per well in triplicate to a 384-well Opti-plate (Perkin Elmer #6007290). Activation Buffer was diluted 25-fold in combined Reaction Buffer 1 and Reaction Buffer 2, and acceptor beads were diluted 50-fold in the combined Reaction Buffers. 5 ul/well of the Acceptor bead:Reaction buffer mixture was added to each well.
as §2, with “No. 5” for “No. 21”, “Buffer (X” for “Buffer (5×”
To determine the ability of Compound No. 118 to inhibit tumor growth and induce tumor regression in vivo, a mouse tumor model containing the HER2 S310F mutation was used. Athymic nude mice from Charles River Labs bearing HER2 S310F BaF3 tumors were treated with two day acute oral dosing of Compound No. 118 at 15 mg/kg. […]
(Bead proximity is the source of the signal in Alpha formats.)

Assay [7] has as its target T2, EGFR WT (Homo sapiens, UniProt P00533). Put plainly: BaF3 cell proliferation assay, EGFR WT (Table A). The class given is cell-based. To be noted: potency code, 3 days, CellTiterGlo, read-out: EGFR WT (Activity for Inhibiting EGFR). In outline: (§3)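 EC50 values come from proliferation of IL-3-independent BaF3 lines. These lines were made by two spin infections with retrovirus encoding each mutant, plus polybrene (8 μg/ml). They then underwent one week of 10 μg/ml blasticidin selection and were removed from IL-3.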
A general note: Cellular ATP, detected with luciferase, serves as a proxy for viable cell number.

The target of assay [8] is T3, HER2 WT (Homo sapiens, UniProt P04626). Put plainly: BaF3 cell proliferation assay, HER2 WT (Table B). The class given is cell-based. The note with it: potency code, 3 days, CellTiterGlo, read-out: HER2 WT (Activity for Inhibiting HER2).
For assay [9], the target named is T2, EGFR WT. Description: Activity for inhibiting EGFR (Table A), EGFR WT. The class given is cell-based. The note with it: read-out: EGFR WT, potency code (IC50).
The target of assay [10] is T4, EGFR V3 (Homo sapiens, UniProt P00533, DELINS30-297G).
T4 construct: expressed in transfected cells; host or cells: BaF3 (murine pro-B), retroviral pMXs-IRES-Blasticidin
T4 sequence (P00533 with tags, fused parts or gaps DELINS30-297G): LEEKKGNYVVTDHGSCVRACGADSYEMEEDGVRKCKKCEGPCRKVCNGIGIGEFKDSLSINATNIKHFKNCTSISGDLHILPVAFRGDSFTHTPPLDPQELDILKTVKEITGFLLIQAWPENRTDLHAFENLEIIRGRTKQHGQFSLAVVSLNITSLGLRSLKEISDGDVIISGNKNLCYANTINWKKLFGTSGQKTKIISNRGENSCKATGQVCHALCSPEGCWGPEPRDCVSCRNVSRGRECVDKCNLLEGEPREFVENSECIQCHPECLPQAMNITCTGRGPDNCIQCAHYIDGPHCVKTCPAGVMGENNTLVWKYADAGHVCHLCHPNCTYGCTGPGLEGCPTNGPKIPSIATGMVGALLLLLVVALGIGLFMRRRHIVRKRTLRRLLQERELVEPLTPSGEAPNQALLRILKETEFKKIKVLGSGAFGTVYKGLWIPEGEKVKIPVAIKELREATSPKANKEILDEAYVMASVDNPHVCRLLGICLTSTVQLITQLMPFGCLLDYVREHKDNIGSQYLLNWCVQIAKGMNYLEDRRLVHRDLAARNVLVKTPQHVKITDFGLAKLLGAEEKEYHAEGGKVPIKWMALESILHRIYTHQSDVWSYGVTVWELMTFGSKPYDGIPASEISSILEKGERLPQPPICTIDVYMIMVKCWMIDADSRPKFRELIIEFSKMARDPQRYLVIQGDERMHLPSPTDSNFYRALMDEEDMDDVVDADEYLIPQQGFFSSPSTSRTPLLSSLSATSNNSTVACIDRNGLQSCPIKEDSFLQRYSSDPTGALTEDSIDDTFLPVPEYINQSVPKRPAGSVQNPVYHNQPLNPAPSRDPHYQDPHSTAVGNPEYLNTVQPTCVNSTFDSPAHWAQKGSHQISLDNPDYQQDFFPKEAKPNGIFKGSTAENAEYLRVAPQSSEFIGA
Put plainly: Activity for inhibiting EGFR (Table A), EGFR V3 (EGFR-Viii). The assay is classed as cell-based. To be noted: read-out: EGFR V3, potency code (IC50).

Assay [11] concerns the target T3, HER2 WT. Put plainly: Activity for inhibiting HER2 (Table B), HER2 WT. The assay is classed as cell-based.
Assay [12] addresses T4, EGFR V3. Put plainly: BaF3 cell proliferation assay, EGFR V3 (Table A). The assay is classed as cell-based. To be noted: potency code, 3 days, CellTiterGlo, read-out: EGFR V3 (Activity for Inhibiting EGFR). In a few lines: as §3
Assay [13] concerns the target T5, HER2 S310F (Homo sapiens, UniProt P04626, S310F).
T5 construct: expressed in transfected cells; host or cells: BaF3 (murine pro-B)
Description: BaF3 cell proliferation assay, HER2 S310F (Table B). The class given is cell-based. To be noted: potency code, 3 days, CellTiterGlo, read-out: HER2 S310F (Activity for Inhibiting HER2).

For assay [14], the target named is T1, HER2 YVMA. Put plainly: BaF3 cell proliferation assay, HER2 YVMA (Table B). The note with it: potency code, 3 days, CellTiterGlo, read-out: HER2 YVMA (Activity for Inhibiting HER2). The class given is cell-based.
In assay [15] the target is T5, HER2 S310F. Put plainly: Activity for inhibiting HER2 (Table B), HER2 S310F. The class given is cell-based. The note with it: read-out: HER2 S310F, potency code (IC50). As to the method: as §1
Assay [16] relates to BaF3-HER2-Δ16 cells. Put plainly: Proliferation of BaF3 cells driven by HER2-Δ16. The class given is cell-based, murine. The note with it: sub-saturating concentrations.
Description: Assay for cell proliferation: BaF3 cell lines were resuspended at 1.3E5 c/ml in RPMI containing 10% Heat Inactivated FBS, 2% L-glutamine and 1% Pen/Strep and dispensed in triplicate (17.5E4 c/well) into 96 well plates. To determine the effect of drug on cell proliferation, cells incubated for 3 days in the presence of vehicle control or test drug at varying concentrations. Inhibition of cell growth was determined by luminescent quantification of intracellular ATP content using CellTiterGlo (Promega), according to the protocol provided by the manufacturer. Comparison of cell number on day 0 versus 72 hours post drug treatment was used to plot dose-response curves. The number of viable cells was determined and normalized to vehicle-treated controls. […] EC50 values were determined with the same application.
Assay [17] relates to HER2 extracellular variants. Put plainly: Covalent dimer formation of HER2 extracellular variants, Western blot. The assay is classed as cell-based. To be noted: Type I inhibitors. For orientation: A western blot detects proteins with antibodies after separation by electrophoresis.

Where only a bound is given, the exact number is not on record here.

T5 sequence (P04626 23-1255 S310F): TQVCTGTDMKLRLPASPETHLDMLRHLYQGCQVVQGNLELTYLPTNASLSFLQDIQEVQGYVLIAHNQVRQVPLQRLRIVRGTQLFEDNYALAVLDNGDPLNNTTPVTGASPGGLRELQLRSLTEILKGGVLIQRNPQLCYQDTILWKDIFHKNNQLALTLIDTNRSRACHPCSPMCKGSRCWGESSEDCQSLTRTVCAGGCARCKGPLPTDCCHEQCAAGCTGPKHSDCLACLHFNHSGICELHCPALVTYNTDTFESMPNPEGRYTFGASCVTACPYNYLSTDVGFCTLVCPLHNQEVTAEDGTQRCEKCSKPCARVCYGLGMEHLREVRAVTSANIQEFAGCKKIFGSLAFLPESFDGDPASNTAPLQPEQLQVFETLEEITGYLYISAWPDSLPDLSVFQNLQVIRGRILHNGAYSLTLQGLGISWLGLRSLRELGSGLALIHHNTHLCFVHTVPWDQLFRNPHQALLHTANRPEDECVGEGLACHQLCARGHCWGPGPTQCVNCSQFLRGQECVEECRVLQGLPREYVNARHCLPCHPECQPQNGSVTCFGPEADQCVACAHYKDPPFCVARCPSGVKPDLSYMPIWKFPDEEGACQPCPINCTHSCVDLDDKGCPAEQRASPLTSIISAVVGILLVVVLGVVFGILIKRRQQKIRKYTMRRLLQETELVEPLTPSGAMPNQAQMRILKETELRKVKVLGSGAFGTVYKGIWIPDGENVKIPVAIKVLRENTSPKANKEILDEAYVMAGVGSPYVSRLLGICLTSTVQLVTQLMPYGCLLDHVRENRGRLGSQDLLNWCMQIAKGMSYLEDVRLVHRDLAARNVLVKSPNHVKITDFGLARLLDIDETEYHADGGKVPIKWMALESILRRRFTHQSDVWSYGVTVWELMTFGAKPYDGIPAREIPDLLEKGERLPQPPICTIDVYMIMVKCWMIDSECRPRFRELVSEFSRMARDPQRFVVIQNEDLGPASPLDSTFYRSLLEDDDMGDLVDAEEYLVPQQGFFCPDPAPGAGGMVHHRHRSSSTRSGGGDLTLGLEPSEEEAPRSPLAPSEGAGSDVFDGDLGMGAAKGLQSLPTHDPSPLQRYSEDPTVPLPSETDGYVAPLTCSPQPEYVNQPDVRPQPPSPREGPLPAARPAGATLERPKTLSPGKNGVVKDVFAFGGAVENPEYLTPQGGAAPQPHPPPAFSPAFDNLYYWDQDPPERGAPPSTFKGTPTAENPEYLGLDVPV
T2 sequence (P00533 25-1210 N540K): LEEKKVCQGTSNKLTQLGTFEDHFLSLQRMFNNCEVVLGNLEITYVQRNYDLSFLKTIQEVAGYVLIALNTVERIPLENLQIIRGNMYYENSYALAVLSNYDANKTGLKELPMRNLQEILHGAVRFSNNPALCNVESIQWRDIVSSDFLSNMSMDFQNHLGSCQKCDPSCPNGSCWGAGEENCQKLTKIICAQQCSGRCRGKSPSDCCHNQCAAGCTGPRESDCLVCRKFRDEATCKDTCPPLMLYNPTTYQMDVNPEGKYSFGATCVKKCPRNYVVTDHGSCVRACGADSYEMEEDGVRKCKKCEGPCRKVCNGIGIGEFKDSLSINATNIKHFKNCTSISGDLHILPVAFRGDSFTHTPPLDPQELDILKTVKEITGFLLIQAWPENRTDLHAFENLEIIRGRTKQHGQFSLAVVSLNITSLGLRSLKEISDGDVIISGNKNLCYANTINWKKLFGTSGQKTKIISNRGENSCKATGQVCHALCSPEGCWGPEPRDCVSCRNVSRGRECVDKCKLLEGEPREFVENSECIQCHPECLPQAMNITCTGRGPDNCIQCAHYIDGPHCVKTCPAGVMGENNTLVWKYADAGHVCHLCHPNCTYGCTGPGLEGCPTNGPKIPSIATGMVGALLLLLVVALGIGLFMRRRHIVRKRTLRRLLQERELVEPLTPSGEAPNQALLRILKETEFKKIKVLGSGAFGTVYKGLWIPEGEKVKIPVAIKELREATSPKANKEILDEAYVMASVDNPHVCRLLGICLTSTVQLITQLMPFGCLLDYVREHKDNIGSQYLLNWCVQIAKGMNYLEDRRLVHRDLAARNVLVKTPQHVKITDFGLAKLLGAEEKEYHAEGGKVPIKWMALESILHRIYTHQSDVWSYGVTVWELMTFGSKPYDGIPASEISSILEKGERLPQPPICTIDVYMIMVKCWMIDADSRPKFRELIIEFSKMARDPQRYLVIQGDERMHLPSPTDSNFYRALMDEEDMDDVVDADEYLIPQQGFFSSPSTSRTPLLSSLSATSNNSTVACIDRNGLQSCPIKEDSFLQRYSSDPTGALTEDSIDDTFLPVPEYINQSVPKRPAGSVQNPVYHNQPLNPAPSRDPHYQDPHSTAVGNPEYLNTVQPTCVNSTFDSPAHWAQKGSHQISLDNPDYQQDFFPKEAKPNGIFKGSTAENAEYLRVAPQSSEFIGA

As to `C=CC(=O)Nc1cccc(Nc2nc(Nc3ccc(N4CCN(C(C)=O)CC4)cc3OC)ncc2C(F)(F)F)c1` [CO-1686], in assay [1], the Induced dimers result was “Yes”.
As to `C#Cc1cccc(Nc2ncnc3cc(OCCOC)c(OCCOC)cc23)c1` [Erlotinib, erlotinib], in [2], the “median OS (mOS)” value is on record as 8.6 months and the “median PFS (mPFS)” value was 2.8 months.
Take `CN(C)C/C=C/C(=O)Nc1cc2c(Nc3ccc(F)c(Cl)c3)ncnc2cc1C#CC1[C@H]2COC[C@@H]12` (some centres unmarked) [NT-113]: the “dimerization for covalently activated ErbB receptors” value in [1] (FIG. 18 legend) is recorded as “induces dimerization”. In [3], the “cellular proliferation in response to the inhibitor” value was “no evidence for increased cellular proliferation”.
For `CCOc1cc2ncc(C#N)c(Nc3ccc(OCc4ccccn4)c(Cl)c3)c2cc1NC(=O)/C=C/CN(C)C` [Neratinib, neratinib], the paradoxical activation entry in [4] is on record as “devoid of paradoxical activation”.
For the compound `CCOc1cc2ncc(C#N)c(Nc3ccc(F)c(Cl)c3)c2cc1NC(=O)/C=C/CN(C)C` [Pelitinib, pelitinib], in assay [1], the Induced dimers entry was “Yes”.
`C=CC(=O)Nc1cccc(Oc2nc(Nc3ccc(N4CCN(C)CC4)cc3)ncc2Cl)c1` [WZ3146]: in assay [1], the Induced dimers result is “Yes”.
Turning to `C=CC(=O)Nc1cccc(Oc2nc(Nc3ccc(N4CCN(C)CC4)cc3OC)ncc2Cl)c1` [WZ4002], in [1], the Induced dimers result is given as “Yes”.
On the same count and under the same terms, in the case of `C=CC(=O)Nc1cccc(Sc2nc(Nc3ccc(N4CCN(C)CC4)cc3)ncc2Cl)c1` [WZ8040] it was “Yes”.
`C=CC(=O)Nc1cc2c(Nc3ccc(OCc4cccc(F)c4)c(Cl)c3)ncnc2cc1OCCN1CCOCC1` [compound 27]: the IC50 in assay [5] was 30 to 50 nM; in [7] it was 300 to 500 nM; in assay [8], 10 to 20 nM; in assay [9], 300 to 500 nM; in assay [10] it was 30 to 50 nM; in assay [11] (Table B, read-out: HER2 WT, potency code (IC50)), 10 to 20 nM. The IC50 in assay [11] (text lists of compounds, read-out: IC50 value for inhibiting wild-type HER2) was at most 20 nM; in assay [12], 30 to 50 nM; in assay [13], 20 to 30 nM; in [14], 30 to 50 nM; in assay [15] it was 20 to 30 nM. Besides, the “pERK1/2 (Thr202/Tyr204) in tumors” value in assay [6] is given as “reduction”. Also, the “pHER2 (Tyr1221/1222) in tumors” value in assay [6] is reported as “reduction”.
For the compound `C=CC(=O)Nc1cc2c(Nc3ccc(OCc4ccccn4)c(Cl)c3)ncnc2cc1OCCCN1CC(OC)C1` [compound 118], the IC50 lay in the range of 20 to 30 nM in [5]; 200 to 300 nM in [7]; 200 to 300 nM in assay [9]; 20 to 30 nM in [10]; 20 to 30 nM in [12]; 10 to 20 nM in [13]. Besides, the IC50 in [14] is 20 to 30 nM; in assay [15], 10 to 20 nM. Also, the “pERK1/2 (Thr202/Tyr204) in tumors” value in assay [6] is reported as “reduction”. Moreover, the “pHER2 (Tyr1221/1222) in tumors” value in [6] is given as “reduction”.
As to `CNC(=O)CN1CCC(Oc2cc3c(Nc4cccc(Cl)c4F)ncnc3cc2OC)CC1` [sapitinib], the “proliferation of BaF3 cells driven by HER2-Δ16” value in assay [16] is “paradoxically stimulate the proliferation”. The “covalent dimers for HER2 extracellular variants” value in assay [17] was “induce the expression of covalent dimers”.
